Experimental data: US20240228476A1, “INHIBITORS OF PROTEIN TYROSINE PHOSPHATASE, COMPOSITIONS, AND METHODS OF USE” (BRISTOL-MYERS SQUIBB COMPANY, priority 2022, published 2024)

Key:
B16-F10 cells = test: Cell proliferation assay (CellTiter-Glo) in B16-F10 cells with IFN-gamma; type: cell-based; settings: 120 h, mouse IFN-gamma 10 ng/mL, read-out: PTPN2 Prolif 5d B16F10 EC50
Experimental: B16-F10 cells (ATCC, Manassas, VA, #CRL-6475) were cultured in DMEM growth medium (ThermoFisher Scientific, Waltham, MA, #11995-040) supplemented with 10% heat inactivated FBS (ThermoFisher Scientific, #16140-071) and 1% pen/strep (ThermoFisher Scientific, #15140-122). The cells were seeded into two white opaque 384-well tissue culture treated microplates (PerkinElmer, Waltham, MA, #6007688) at a density of 100 cells/well in 20 uL total volume and incubated overnight at 37 C and 5% CO2. 30 nL of compounds dissolved in DMSO were then transferred from a source plate into target wells with the Echo650 acoustic liquid handler (Beckman Coulter, Indianapolis, IN). Negative control wells received 30 nL of DMSO only (0.15% final concentration). Plates were returned to the incubator for 1 hour and then cells treated with either 5 uL of growth medium or 5 uL of growth medium containing 50 ng/ml of recombinant mouse IFN-gamma protein (R&D Systems, Minneapolis, MN, #485-MI/CF, 10 ng/mL final concentration) using the Assist automated pipetting platform (INTEGRA Biosciences, Hudson, NH). Plates were incubated at 37 C for 4 days and cell proliferation assayed with the CellTiter-Glo reagent (Promega, Madison, WI, #G7573, 25 uL per well). […] Off-target compound mediated cytotoxicity was identified by checking for growth inhibition in the absence of IFNg.

PTPN2 [1] = target: T1, PTPN2 (Homo sapiens, UniProt P17706); test: PTPN2 biochemical assay (PhosphoSens, substrate AQT0264); settings: PhosphoSens substrate AQT0264 20 μM, room temperature; read-out: PTPN2 BCHEM IC50
T1 sequence (P17706 1-415): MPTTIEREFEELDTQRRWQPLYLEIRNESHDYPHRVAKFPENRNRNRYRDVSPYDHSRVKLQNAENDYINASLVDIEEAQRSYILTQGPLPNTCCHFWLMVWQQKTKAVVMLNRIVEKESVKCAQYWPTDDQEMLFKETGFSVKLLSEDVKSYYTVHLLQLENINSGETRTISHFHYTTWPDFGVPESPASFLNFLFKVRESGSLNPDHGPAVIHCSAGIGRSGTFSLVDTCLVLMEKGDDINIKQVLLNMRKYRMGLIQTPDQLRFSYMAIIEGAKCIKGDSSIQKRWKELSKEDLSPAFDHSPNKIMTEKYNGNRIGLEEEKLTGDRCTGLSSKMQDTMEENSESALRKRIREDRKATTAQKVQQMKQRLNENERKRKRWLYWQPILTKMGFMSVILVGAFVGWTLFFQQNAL
Experimental: A PhosphoSens® kinase assay was performed as described by the vendor (AssayQuant Technologies, Marlborough, MA). Briefly, 1000× solutions of compounds were prepared in DMSO via serial dilution of the 10 mM DMSO stocks using 3-fold intervals in a 384-well reagent plate. 50 nL of the compound dilution series was then added to the corresponding wells of a 384-well assay plate. 40 mL of 1.25× substrate (AQT0264) in 1× assay buffer (50 mM HEPES pH 7.5, 500 μM EGTA, […] MgCl2, 0.01% Brij-35, 1% Glycerol, 1 mM DTT, and 0.2 mg/mL BSA) was transferred to each well of the assay plate to achieve a final substrate concentration of 20 μM. Finally, […] of 5×PTPN2 enzyme stock was added to each well of the assay plate for a final enzyme concentration of […]. Reaction progress curves were collected by sampling fluorescence intensity at the excitation wavelength 360 nm (λex360) and emission wavelength 480 nm (λem480) every 71 seconds for one hour using a Synergy H4 plate reader (BioTek Instruments/Agilent Technologies, Winooski, VT) at room temperature.
(§1) For IC50 data, High DDT concentration and/or DiFMUP substrate assays were used; a skilled artisan may use either assay.

PTPN2 [2] = target: T1, PTPN2; test: Phosphatase activity assay using DiFMUP as substrate; type: biochemical; set-up: purchased MilliporeSigma SRP5075; settings: 10 mM DTT, PTPN2 0.15 nM, room temperature, read-out: PTPN2 BCHEM DIFMUP IC50
Experimental: The PTPN2 biochemical assay was performed as follows, a 5× stock solution of human PTPN2 (SRP5075, MilliporeSigma, Burlington, MA) and a 1.25× stock solution of DiFMUP (D6567, ThermoFisher Scientific, Waltham, MA), were prepared in 1× reaction buffer consisting of 50 mM HEPES, pH 7.4, 1 mM EDTA, 150 mM NaCl, 0.2 mg/mL BSA, 100 U/mL catalase and 10 mM DTT. […] of the DiFMUP substrate solution, for a final concentration of […] DiFMUP substrate, was added to a Corning 3574 384-well, white, non-binding surface microtiter plate containing […] of serially diluted test compounds prepared in DMSO. The reactions were started with the addition of […] of the enzyme solution, for a final PTPN2 concentration of 0.15 nM, and monitored every 105 seconds for 60 minutes at λEX 360/λEM 460 in a BioTek Synergy HTX plate reader (Agilent Technologies, Santa Clara, CA) at room temperature. The initial linear portions of the progress curves were fit according to a linear equation to yield the slopes and converted to % inhibition based on a value of 100% activity for the no inhibitor treated control. IC50 values of each compound were obtained by fitting the % inhibition-compound concentration curves using Dotmatics software (Dotmatics, Bishops Stortford, Hertfordshire, England)
as §1

phospho-STAT1 (Tyr701) = test: Phospho-STAT1 (Tyr701) HTRF assay in B16-F10 cells; type: cell-based; settings: mouse IFN-gamma 100 ng/ml, 1 hour, read-out: pSTAT1 HTRF B16 EC50
Experimental: B16-F10 cells (ATCC, Manassas, VA, #CRL-6475) were cultured in DMEM growth medium (ThermoFisher Scientific, Waltham, MA, #11995-040) supplemented with 10% heat inactivated FBS (ThermoFisher Scientific, #16140-071) and 1% pen/strep (ThermoFisher Scientific, #15140-122). The cells were seeded into a white opaque 384-well tissue culture treated microplate (PerkinElmer, Waltham, MA, #6007688) at a density of 10,000 cells/well in 20 uL total volume and incubated overnight at 37 C and 5% CO2. 30 nL of compounds dissolved in DMSO were then transferred from a source plate into target wells with the Echo650 acoustic liquid handler (Beckman Coulter, Indianapolis, IN). Negative control wells received 30 nL of DMSO only (0.15% final concentration). Plates were returned to the incubator for 1 hour and then cells treated with either 5 uL of growth medium or 5 uL of growth medium containing 500 ng/ml of recombinant mouse IFN-gamma protein (R&D Systems, Minneapolis, MN, #485-MI/CF, 100 ng/ml final concentration) using the Assist automated pipetting platform (INTEGRA Biosciences, Hudson, NH). Plates were incubated at 37 C for 1 hour and assayed for phosphorylated STAT1 protein levels with the phospho-STAT1 (Tyr701) HTRF kit (Cisbio, Bedford, MA, #63ADK026PEH) according to manufacturer's instructions. HTRF signal intensity was collected with the En Vision 2105 plate reader (PerkinElmer) 24 hours later and analyzed with the Dotmatics software platform to calculate compound IC50 values.

| EC50 (B16-F10 cells) [nM] | IC50 (PTPN2 [1]) [nM] | IC50 (PTPN2 [2]) [nM] | EC50 (phospho-STAT1 (Tyr701)) [nM] | SMILES |
| --- | --- | --- | --- | --- |
| 470 | 4 | 20 | 1200 | Cc1cc(NCc2cc(O)c(N3CC(=O)NS3(=O)=O)c(F)c2)ncn1 [EXAMPLE 26, 5-[2-fluoro-6-hydroxy-4-[[(6-methylpyrimidin-4-yl)amino]methyl]phenyl]-1,1-dioxo-1,2,5-thiadiazolidin-3-one] |
| 10100 | 40 | 30 | 8600 | Cc1ncc(C)c(NCc2cc(O)c(N3CC(=O)NS3(=O)=O)c(F)c2)n1 [EXAMPLE 27, 5-[4-[[(2,5-dimethylpyrimidin-4-yl)amino]methyl]-2-fluoro-6-hydroxy-phenyl]-1,1-dioxo-1,2,5-thiadiazolidin-3-one] |
| > 15000 | 20 | 60 | > 15000 | CC(C)(C)c1ccc(Oc2ccc(NCc3cc(O)c(N4CC(=O)NS4(=O)=O)c(F)c3)cn2)cc1 [EXAMPLE 31, 5-[4-[[[6-(4-tert-butylphenoxy)-3-pyridyl]amino]methyl]-2-fluoro-6-hydroxy-phenyl]-1,1-dioxo-1,2,5-thiadiazolidin-3-one] |
